Test results: publication PMC9000413, “Isolation and Structural Elucidation of Compounds from Pleiocarpa bicarpellata and Their In Vitro Antiprotozoal Activity” (Molecules, 2022)
Like-named read-outs stand apart in the source and are kept apart here.

Columns and labels:
P. falciparum [1] = assay: In vitro antiplasmodial assay (P. falciparum NF54, intraerythrocytic); conditions: for IC50: Plasmodium falciparum, NF54, read-out: IC50 P. falciparum; for selectivity ratio: rat
Description: The in vitro activity was assessed on T. b. rhodesiense (STIB900, bloodstream forms), T. cruzi (Tulahuen C2C4, intracellular amastigotes), L. donovani (MHOM-ET-67/L82, axenically grown amastigotes), P. falciparum (NF54, intraerythrocytic), and L6 cells (rat skeletal myoblasts) as previously described. Results are expressed in µg/mL for extracts and in µM for pure compounds.

P. falciparum [2] = tested on: P. falciparum; set-up: method as in PMID 11378289; conditions: alkaloids from the methanol root extract of P. mutica; cited from earlier work
[3] = Cytotoxicity against rat skeletal myoblast L6 cells; format: cell-based
Description: (§1) The in vitro activity was assessed on T. b. rhodesiense (STIB900, bloodstream forms), T. cruzi (Tulahuen C2C4, intracellular amastigotes), L. donovani (MHOM-ET-67/L82, axenically grown amastigotes), P. falciparum (NF54, intraerythrocytic), and L6 cells (rat skeletal myoblasts) as previously described [42].

L. donovani = assay: In vitro antileishmanial assay (L. donovani MHOM-ET-67/L82, axenically grown amastigotes); format: cell-based, Leishmania donovani; conditions: for IC50: Leishmania donovani, pure compounds and reference drug, mean of two independent assays, axenically grown amastigotes
Description: as §1

P. berghei = tested on: P. berghei; set-up: method as in PMID 11378289; conditions: in vivo mouse model, daily doses of 25 mg/kg/day, compared to untreated control mice; cited from earlier work
T. cruzi [4] = tested on: T. cruzi; set-up: method as in PMID 25233577; conditions: cited from earlier work
L. infantum = tested on: L. infantum; set-up: method as in PMID 25233577; conditions: cited from earlier work
T. cruzi [5] = assay: In vitro antitrypanosomal assay (T. cruzi Tulahuen C2C4, intracellular amastigotes); format: cell-based; conditions: Trypanosoma cruzi
Description: as §1

T. b. rhodesiense = assay: In vitro antitrypanosomal assay (T. b. rhodesiense STIB900, bloodstream forms); format: cell-based; conditions: Trypanosoma brucei
Description: as §1

T. cruzi [6] = tested on: T. cruzi; set-up: method as in PMID 26755152; conditions: previous study; cited from earlier work
[7] = Selectivity index (SI) = IC50 cytotoxicity/IC50 against parasite, L6 cells vs P. falciparum

| Compound | IC50 (P. falciparum [1]) | IC50 (P. falciparum [2]) | IC50 (L. donovani) | IC50 ([3]; rat) | further results |
| --- | --- | --- | --- | --- | --- |
| CCN(CC)CCCC(C)Nc1ccnc2cc(Cl)ccc12 (stereo not shown) [Chloroquine, reference compound] | 0.006 µM |  |  |  |  |
| COC(=O)[C@@H]1CC23CCCN4CC[C@@]5(c6ccccc6NC15CC2)[C@@H]43 (stereo partly shown) [Compound 2, kopsinine] |  | > 200 µM |  |  |  |
| CC=C1C[N+]2(C)C3CC1C(CO)(C(=O)OC)C2Cc1c3[nH]c2ccccc12 (stereo not shown) [Compound 6, macusine A] | 26.9 µM |  | > 50 µM |  | IC50 ([3]; L6 cells (rat skeletal myoblasts), pure compounds and reference drug, rat skeletal myoblast L6 cells, mean of two independent assays, read-out: IC50 Cytotoxicity): 272 µM; selectivity ratio (P. falciparum [1]; [7]): 10.1 |
| COC(=O)[C@@H]1CC23CCCN4CC[C@@]5(c6ccccc6N(C(=O)OC)C15CC2)[C@@H]43 (stereo partly shown) [Compound 11, pleiocarpine] | 26.6 µM | > 200 µM | > 50 µM | 156 µM | reduced parasitemia (P. berghei): 28.5%; selectivity ratio (P. falciparum [1]): 5.8 |
| CC[C@H]1[C@@H]2CCN3CC[C@@]4(C(=C2C(=O)OC)Nc2ccccc24)[C@@H]13 [Compound 13, tubotaiwine] | 8.5 µM |  | > 50 µM | 197 µM | activity against T. cruzi (T. cruzi [4]): no activity; IC50 (L. infantum): 17.3 µM; Selectivity index (SI) = IC50 cytotoxicity/IC50 against parasite (P. falciparum [1]; L6 cells vs P. falciparum): 23.2; selectivity ratio (P. falciparum [1]; [7]): 23.4 |
| CCC1C2CCN3CCC4(C(=C2C(=O)OC)Nc2ccccc24)C13 [Compound 15, methyl (7S,15R,20R,21S)-20-ethyl-5,6,14,15,21-hexahydro-15,21-ethanopyrrolo[5,21-d]carbazole-16-carboxylate-methane] | > 50 µM |  | > 50 µM |  | IC50 (T. cruzi [5]): > 50 µM; IC50 (T. b. rhodesiense): > 50 µM |
| C=C[C@H]1[C@H](O[C@@H]2O[C@H](CO)[C@@H](O)[C@H](O)[C@H]2O)OC=C(C(=O)OC)[C@H]1CC(=O)O [Compound 16, secoxyloganin] | > 50 µM |  | 25.3 µM | 294 µM | selectivity ratio (L. donovani; rat, L6 cells vs L. donovani, read-out: Selectivity index (SI) = IC50 cytotoxicity/IC50 against parasite): 11.6; IC50 (T. cruzi [6]): > 150 µM |
| CCCCCCCCCCCCCCCCOP(=O)([O-])OCC[N+](C)(C)C [Miltefosine, reference compound] |  |  | 0.554 µM |  |  |
| COc1cc([C@@H]2c3cc4c(cc3[C@H](O)[C@H]3COC(=O)[C@H]23)OCO4)cc(OC)c1OC [Podophyllotoxin, reference compound] |  |  |  |  | IC50 ([3]; pure compounds and reference drug, rat skeletal myoblast L6 cells, mean of two independent assays, read-out: IC50 Cytotoxicity): 0.027 µM |
| C/C=C1/CN2CC[C@@]34CN5c6c(cccc6[C@@]67CCN8CCC[C@@]9(CC[C@@]56[C@@H]9C)[C@H]87)[C@@]35[C@@H]2C[C@@H]1[C@@H](C(=O)OC)N5c1ccccc14 [pleiomutinine, reference compound] |  | 5 µM |  |  |  |
